Test results taken from paper PMC11945486, “TAS1R2/TAS1R3 Single-Nucleotide Polymorphisms Affect Sweet Taste Receptor Activation by Sweeteners: The SWEET Project” (Nutrients, 2025).

Target: T1, human TAS1R2-I191V (subunit alone) (Homo sapiens, UniProt Q8TE23, I191V)
T1 construct: expressed in transfected cells; host or cells: HEK293T-Gα16gust44
T1 sequence (Q8TE23 20-839 I191V): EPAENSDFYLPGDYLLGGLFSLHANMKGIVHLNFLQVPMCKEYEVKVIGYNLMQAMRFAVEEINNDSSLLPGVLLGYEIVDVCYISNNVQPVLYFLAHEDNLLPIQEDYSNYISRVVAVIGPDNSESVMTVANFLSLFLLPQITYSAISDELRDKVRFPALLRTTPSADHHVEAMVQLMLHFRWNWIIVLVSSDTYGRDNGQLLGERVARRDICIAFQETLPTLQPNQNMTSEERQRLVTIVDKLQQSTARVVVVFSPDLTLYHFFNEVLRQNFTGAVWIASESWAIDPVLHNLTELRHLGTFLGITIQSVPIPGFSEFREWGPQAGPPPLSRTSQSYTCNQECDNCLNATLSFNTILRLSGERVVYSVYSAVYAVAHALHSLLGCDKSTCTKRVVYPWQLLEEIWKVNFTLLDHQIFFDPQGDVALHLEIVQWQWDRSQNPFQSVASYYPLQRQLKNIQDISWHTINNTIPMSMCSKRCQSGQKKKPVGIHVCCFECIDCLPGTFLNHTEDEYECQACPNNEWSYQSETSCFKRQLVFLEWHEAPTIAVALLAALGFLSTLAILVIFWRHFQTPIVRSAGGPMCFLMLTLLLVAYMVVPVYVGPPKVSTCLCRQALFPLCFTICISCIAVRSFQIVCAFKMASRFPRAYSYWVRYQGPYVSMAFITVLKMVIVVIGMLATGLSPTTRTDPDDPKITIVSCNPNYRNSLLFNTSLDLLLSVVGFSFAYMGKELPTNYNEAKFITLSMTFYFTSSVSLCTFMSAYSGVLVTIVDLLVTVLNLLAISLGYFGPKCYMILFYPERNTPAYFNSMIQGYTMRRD
Experiment: Calcium mobilisation assay, TAS1R2-I191V subunit alone
Type: cell-based
Text: The coding sequences for TAS1R2 and TAS1R3 were commercially synthesised, and the human codon was optimised for expression in human cells. The coding sequences of human TAS1R2 and TAS1R3 were subcloned and inserted into the mammalian expression vectors pcDNA6/myc-HisA and pcDNA4/myc-HisA (Invitrogen; Thermo Fisher Scientific; Illkirch, France) between the EcoRI and NotI restriction sites, generating the plasmids pcDNA6-TAS1R2 and pcDNA4-TAS1R3, respectively. To increase protein expression in mammalian cells, an upstream start codon was used, which was a sequence called MAX, corresponding to the QBI SP163 element also described in pcDNA4-HisMax (Invitrogen; Thermo Fisher Scientific; Illkirch, France). To measure the expression level of the receptor by immunohistochemistry, we used the FLAG sequence ([…]) in the C-terminal position, which encodes the FLAG tag epitope. […]
The HEK293T cells were kindly provided by Jay P. Slack (Givaudan Flavors Corporation; Cincinnati, OH, USA). […] The fluorescence intensity was measured for 90 s (excitation 488 nm, emission 510 nm) in an automated fluorometric FlexStation®3 Multi-Mode microplate reader (Molecular Devices; San Jose, CA, USA). […] The Ca^2+ changes were expressed as fractional changes in fluorescent light intensity: ΔF/F = (F − F0)/F0, where F was the fluorescent light intensity at each point, and F0 was the value of emitted fluorescent light prior to stimulus application. To calculate dose–response relationships, the changes in fluorescence upon stimulus application were averaged, mock-subtracted and baseline-corrected. […] The half-maximal effective concentrations (EC50 values) and maximal signal amplitudes were calculated using SigmaPlot software (version 15.0) (Systat Software; San Jose, CA, USA).
For in vitro calcium mobilisation assay performed on hTAS1R2-SNPs, hTAS1R3-SNPs and mTAS1R3-I60T, 6 to 7 concentrations were tested for each sweet compound, plus buffer alone. All concentration–receptor combinations were measured in duplicate, and each experiment was repeated at least 4 times (8 wells/concentration). […]

EC50: 390 ± 47 µM
R1 = Variant EC50/WT EC50: 4.3
Max ΔF/F0 (maximal signal amplitude): 0.19 ± 0.01
Structure (SMILES): C=C(C)[C@@H]1CC=C(/C=N/O)CC1 [Perillartine, perillartine]
